{
  "source": "patent US20140271770A1",
  "about": "“Methods And Compositions For Treating Post-Operative Pain Comprising Clonidine” (WARSAW ORTHOPEDIC, INC., priority 2013, published 2014)",
  "assay": "14 day pharmacokinetic study, clonidine strips implanted in intermuscular pockets, plasma clonidine by LC/MS/MS",
  "format": "in vivo, beagle dogs",
  "settings": "mannitol as excipient in the clonidine strips",
  "source_text": "Clonidine strips were surgically implanted in intermuscular pockets in beagle dogs to evaluate the in vivo clonidine elution and plasma clonidine concentrations. Four male and four female dogs were divided into two groups of two (per sex). Group 1 received 6 strips of formulation 640-51 (5% clonidine HCl, 5% mannitol, 60:40 LCL 5A polymer, micronized API) and Group 2 received 6 strips of formulation 640-73 (4% clonidine HCl, 7.5% mannitol, 60:40 LCL 5A polymer, milled 25 micron API).\nBlood was drawn at 30 minutes and 1, 2, 4, 8, and 24 hours post-implant. Blood was then drawn daily through day 7, and again at days 10 and 14. The blood was processed to plasma and the clonidine concentration in the plasma was determined by high performance liquid chromatography and tandem mass spectroscopy (LC/MS/MS).",
  "data": [
    {"smiles": "OC[C@@H](O)[C@@H](O)[C@H](O)[C@H](O)CO", "note": "[Mannitol]", "values": [
      {"measurement": "effect on drug release within the first 72 hours", "result": "speeds up drug release"}
    ]}
  ]
}
